Values after ≈ are worked out from the molar mass of the structure shown.
Assays:
Type in all cases: functional
Bacillus spizizenii = assay: Antibacterial activity against Bacillus subtilis ATCC 6633 by micro broth dilution method
Candida albicans = assay: Antifungal activity against Candida albicans ATCC 10231 after 24 hrs by micro broth dilution method; conditions: ATCC 10231, 24 h
[1] = Antifungal activity against Candida mycoderma ATCC 9888 after 24 hrs by micro broth dilution method; conditions: Candida vini
Escherichia coli [2] = assay: Antibacterial activity against Escherichia coli JM109 by micro broth dilution method
Salmonella enterica = assay: Antibacterial activity against Salmonella enterica ATCC 14028 by micro broth dilution method
Cyberlindnera jadinii = assay: Antifungal activity against Candida utilis ATCC 9950 after 24 hrs by micro broth dilution method; conditions: Williopsis jadinii, ATCC 9950, 24 h
Staphylococcus aureus [3] = assay: Antibacterial activity against methicillin-resistant Staphylococcus aureus N315 by micro broth dilution method
Aspergillus flavus = assay: Antifungal activity against Aspergillus flavus ATCC 204304 after 24 hrs by micro broth dilution method; conditions: ATCC 204304, 24 h
Saccharomyces cerevisiae = assay: Antifungal activity against Saccharomyces cerevisiae ATCC 9763 after 24 hrs by micro broth dilution method; conditions: ATCC 9763, 24 h
[4] = Antibacterial activity against Bacillus proteus ATCC 13315 by micro broth dilution method
Shigella dysenteriae = assay: Antibacterial activity against Shigella dysenteriae by micro broth dilution method
Pseudomonas aeruginosa = assay: Antibacterial activity against Pseudomonas aeruginosa ATCC 27853 by micro broth dilution method
Staphylococcus aureus [5] = assay: Antibacterial activity against Staphylococcus aureus ATCC 25923 by micro broth dilution method
Escherichia coli [6] = assay: Antibacterial activity against Escherichia coli DH52 by micro broth dilution method
Micrococcus luteus = assay: Antibacterial activity against Micrococcus luteus ATCC 4698 by micro broth dilution method; conditions: NCTC 2665

Row | Compound | MIC (Bacillus spizizenii) [µg/mL] | MIC80 (Candida albicans) [µg/mL] | MIC80 [1] [µg/mL] | MIC (Escherichia coli [2]) [µg/mL] | MIC (Salmonella enterica) [µg/mL] | MIC80 (Cyberlindnera jadinii) [µg/mL] | MIC (Staphylococcus aureus [3]) [µg/mL] | MIC80 (Aspergillus flavus) [µg/mL] | MIC80 (Saccharomyces cerevisiae) [µg/mL] | MIC [4] [µg/mL] | MIC (Shigella dysenteriae) [µg/mL] | MIC (Pseudomonas aeruginosa) [µg/mL] | MIC (Staphylococcus aureus [5]) [µg/mL] | MIC (Escherichia coli [6]) [µg/mL] | MIC (Micrococcus luteus) [µg/mL]
1 | CCn1cc(C(=O)O)c(=O)c2cc(F)c(N3CCN(Cc4nc5ccccc5n4CC)CC3)cc21 | 2 (≈ 4.19 µM) | 4 (≈ 8.38 µM) | 0.25 (≈ 0.524 µM) | 32 (≈ 67 µM) | 0.5 (≈ 1.05 µM) | 8 (≈ 16.8 µM) | 8 (≈ 16.8 µM) | 32 (≈ 67 µM) | 64 (≈ 134 µM) | 1 (≈ 2.09 µM) | 128 (≈ 268 µM) | 32 (≈ 67 µM) | 128 (≈ 268 µM) | 4 (≈ 8.38 µM) | 4 (≈ 8.38 µM)
2 | CCn1cc(C(=O)O)c(=O)c2cc(F)c(N3CCN(Cc4nc5ccccc5n4Cc4ccc(Cl)cc4Cl)CC3)cc21 | 8 (≈ 13.1 µM) | 0.5 (≈ 0.822 µM) | 1 (≈ 1.64 µM) | 4 (≈ 6.57 µM) | 0.25 (≈ 0.411 µM) | 0.5 (≈ 0.822 µM) | 0.125 (≈ 0.205 µM) | 1 (≈ 1.64 µM) | 2 (≈ 3.29 µM) | 1 (≈ 1.64 µM) | 2 (≈ 3.29 µM) | 1 (≈ 1.64 µM) | 4 (≈ 6.57 µM) | 1 (≈ 1.64 µM) | 0.25 (≈ 0.411 µM)
3 | O=C(O)c1cn(C2CC2)c2cc(N3CCN(Cc4nc5ccccc5n4Cc4ccc(F)cc4)CC3)c(F)cc2c1=O | 8 (≈ 14 µM) | 8 (≈ 14 µM) | 16 (≈ 28.1 µM) | 16 (≈ 28.1 µM) | 16 (≈ 28.1 µM) | 8 (≈ 14 µM) | 4 (≈ 7.02 µM) | 8 (≈ 14 µM) | 16 (≈ 28.1 µM) | 16 (≈ 28.1 µM) | 16 (≈ 28.1 µM) | 8 (≈ 14 µM) | 16 (≈ 28.1 µM) | 32 (≈ 56.2 µM) | 16 (≈ 28.1 µM)
4 | CCCCCCCCn1c(CN2CCN(c3cc4c(cc3F)c(=O)c(C(=O)O)cn4CC)CC2)nc2ccccc21 | 32 (≈ 57 µM) | 8 (≈ 14.2 µM) | 2 (≈ 3.56 µM) | 32 (≈ 57 µM) | 4 (≈ 7.12 µM) | 2 (≈ 3.56 µM) | 2 (≈ 3.56 µM) | 0.5 (≈ 0.89 µM) | 4 (≈ 7.12 µM) | 4 (≈ 7.12 µM) | 16 (≈ 28.5 µM) | 2 (≈ 3.56 µM) | 32 (≈ 57 µM) | 8 (≈ 14.2 µM) | 4 (≈ 7.12 µM)
5 | CCn1cc(C(=O)O)c(=O)c2cc(F)c(N3CCN(Cc4nc5ccccc5n4Cc4ccccc4Cl)CC3)cc21 | 16 (≈ 27.9 µM) | 4 (≈ 6.97 µM) | 0.5 (≈ 0.871 µM) | 16 (≈ 27.9 µM) | 0.5 (≈ 0.871 µM) | 2 (≈ 3.48 µM) | 0.125 (≈ 0.218 µM) | 0.5 (≈ 0.871 µM) | 1 (≈ 1.74 µM) | 4 (≈ 6.97 µM) | 16 (≈ 27.9 µM) | 1 (≈ 1.74 µM) | 8 (≈ 13.9 µM) | 2 (≈ 3.48 µM) | 0.5 (≈ 0.871 µM)
6 | CCCCCn1c(CN2CCN(c3cc4c(cc3F)c(=O)c(C(=O)O)cn4C3CC3)CC2)nc2ccccc21 | 4 (≈ 7.52 µM) | 8 (≈ 15 µM) | 2 (≈ 3.76 µM) | 128 (≈ 241 µM) | 4 (≈ 7.52 µM) | 8 (≈ 15 µM) | 64 (≈ 120 µM) | 256 (≈ 482 µM) | 256 (≈ 482 µM) | 2 (≈ 3.76 µM) | 8 (≈ 15 µM) | 2 (≈ 3.76 µM) | 128 (≈ 241 µM) | 1 (≈ 1.88 µM) | 4 (≈ 7.52 µM)
7 | CCn1cc(C(=O)O)c(=O)c2cc(F)c(N3CCN(CCc4nc5ccccc5[nH]4)CC3)cc21 | 2 (≈ 4.31 µM) | 64 (≈ 138 µM) | 64 (≈ 138 µM) | 32 (≈ 69 µM) | 32 (≈ 69 µM) | 32 (≈ 69 µM) | 16 (≈ 34.5 µM) | 32 (≈ 69 µM) | 64 (≈ 138 µM) | 16 (≈ 34.5 µM) | 128 (≈ 276 µM) | 32 (≈ 69 µM) | 64 (≈ 138 µM) | 32 (≈ 69 µM) | 64 (≈ 138 µM)
8 | CCn1cc(C(=O)O)c(=O)c2cc(F)c(N3CCN(Cc4nc5ccc([N+](=O)[O-])cc5[nH]4)CC3)cc21 | 8 (≈ 16.2 µM) | 4 (≈ 8.09 µM) | 8 (≈ 16.2 µM) | 32 (≈ 64.7 µM) | 4 (≈ 8.09 µM) | 8 (≈ 16.2 µM) | 8 (≈ 16.2 µM) | 2 (≈ 4.04 µM) | 16 (≈ 32.4 µM) | 2 (≈ 4.04 µM) | 4 (≈ 8.09 µM) | 2 (≈ 4.04 µM) | 16 (≈ 32.4 µM) | 8 (≈ 16.2 µM) | 1 (≈ 2.02 µM)
9 | CCCCCCCCCCn1c(CN2CCN(c3cc4c(cc3F)c(=O)c(C(=O)O)cn4C3CC3)CC2)nc2ccccc21 | 64 (≈ 106 µM) | 64 (≈ 106 µM) | 64 (≈ 106 µM) | 128 (≈ 213 µM) | 32 (≈ 53.2 µM) | 64 (≈ 106 µM) | 64 (≈ 106 µM) | 16 (≈ 26.6 µM) | 16 (≈ 26.6 µM) | 32 (≈ 53.2 µM) | 64 (≈ 106 µM) | 32 (≈ 53.2 µM) | 64 (≈ 106 µM) | 128 (≈ 213 µM) | 128 (≈ 213 µM)
10 | O=C(O)c1cn(C2CC2)c2cc(N3CCN(CCc4nc5ccccc5[nH]4)CC3)c(F)cc2c1=O | 128 (≈ 269 µM) | 2 (≈ 4.21 µM) | 2 (≈ 4.21 µM) | 2 (≈ 4.21 µM) | 1 (≈ 2.1 µM) | 4 (≈ 8.41 µM) | 4 (≈ 8.41 µM) | 1 (≈ 2.1 µM) | 1 (≈ 2.1 µM) | 2 (≈ 4.21 µM) | 0.5 (≈ 1.05 µM) | 0.5 (≈ 1.05 µM) | 4 (≈ 8.41 µM) | 4 (≈ 8.41 µM) | 1 (≈ 2.1 µM)
